Measurements reported in paper PMC6005030, “The c-Abl inhibitor, Radotinib HCl, is neuroprotective in a preclinical Parkinson’s disease mouse model” (Human Molecular Genetics, 2018).
Where a name gives a salt, the structure may show the parent alone.

What was measured:
[1] = tested on: α-synuclein PFF mouse model of sporadic PD; test: α-synuclein PFF mouse model: behavioral tests (pole, grip strength, amphetamine rotation); format: in vivo, C57BL/6 mice
Experimental: (§1) For stereotaxic injection of α-synuclein PFF, 2 months old mice were anesthetized with the mixture of xylazene and ketamine. An injection cannula (26.5 gauge) was applied stereotaxically into the striatum (anteroposterior, […]; dorsoventral, 2.6 mm) unilaterally into the right hemisphere. The infusion of 2 μl α-synuclein PFF (2.5 μg/μl in PBS) or PBS was performed at a rate of 0.4 μl per min. The head skin was closed by suturing and wound healing and recovery were monitored following surgery. For stereological analysis, animals were perfused and fixed intracardially with ice-cold PBS followed by 4% paraformaldehyde at 6 months after striatal α-synuclein PFF injections. The brain was removed and processed for immunohistochemistry or immunofluorescence. Behavioral test was performed at 6 months after the unilateral striatal α-synuclein PFF injections. Treatment of Radotinib HCl was accomplished after 1 month of striatal α-synuclein PFF injections, once a day.
Before the actual test, mice were trained for three consecutive days and each training session consists of three test trials. Briefly, the mice were placed on the top of the pole (3 in. from the top of the pole) and then total time to reach the bottom of the pole was recorded. For the test, mice went through three sessions and the total time was recorded. Results were recorded by turn down, climb down, and total time (in seconds).
Neuromuscular strength was measured by maximum holding force generated by the mice. Mice were allowed to grasp a metal grid with their forelimbs. The tail was gently pulled and the maximum holding force recorded by the force transducer (Biosed, USA) when the mice released their grasp on the grid.
The amphetamine treatment (5 mg/kg, Sigma-Aldrich) was intraperitoneally administered after 6 months of α-synuclein PFF injections with or without Radotinib HCl treatment. Mice were placed in individual white bowls with a diameter of 20 cm and allowed to habituate to their environment for 10 min before turns contralateral and ipsilateral to the lesion were recorded over 20 min. Full-body ipsilateral rotations (clockwise) per 1 min session were recorded for each mouse from the video recordings.

BCR-Abl = conditions: cited from earlier work
primary cortical neurons [2] = test: α-synuclein PFF-induced LB/LN-like pathology in primary cortical neurons (pS129-α-synuclein immunostaining); format: cell-based, C57BL/6 mice; conditions: 50 nM, 250 nM and 1 μM, dose-dependent; 10 days
Experimental: (§2) C57BL/6 mice were obtained from the Charles River (Wilmington, MA). Primary cortical neurons were prepared from E15.5 pups and cultured in Neurobasal media supplemented with B-27, 0.5 mM L-glutamine, penicillin and streptomycin (Invitrogen, Grand Island, NY) on 24-well tissue culture plates coated with poly-D-lysine. Radotinib HCl was added to neurons for 30 min and α-synuclein PFF (final concentration 1 μg/ml) was further incubated as described (10 or 14 days) followed by Immunocytochemistry and biochemical or toxicity assays. Radotinib HCl was added to neurons three times a week before the assays.
(§3) Primary mouse cortical neurons were plated onto poly-D-lysine coated coverslips. 4% paraformaldehyde was used to fix the neurons, followed by blocking in a solution with 5% normal donkey serum (Jackson ImmunoResearch), 2% BSA (Sigma-Aldrich) and 0.1% TX (Sigma-Aldrich) for 30–60 min at room temperature. Floating brain tissue sections were blocked with 10% donkey serum (Jackson Immunoreserach) in PBS plus 0.2% TX for 30 min at room temperature.
Primary antibodies, anti-pS129-α-synuclein (ab168381; Abcam), anti-TH antibody (Novus Biologicals) and anti-MAP2 (MAB3418; Millipore) were incubated at 4°C overnight. […]

c-Abl [3] = test: α-synuclein PFF mouse model: c-Abl activation and p38 MAPK phosphorylation in brain (Western blot); format: in vivo, C57BL/6 mice
Experimental: The mouse brain tissues were homogenized and prepared in lysis buffer (10 mM Tris–HCL, pH 7.4, 150 mM NaCl, 5 mM EDTA, 0.5% Nonidet P-40, 10 mM Na-β-glycerophosphate, phosphatase inhibitor cocktail (Sigma-Aldrich) and complete protease inhibitor mixture (Roche)), using a Diax 900 homogenizer (Sigma-Aldrich). After homogenization, samples were rotated at 4°C for 30 min for complete lysis, the homogenate was centrifuged at 22 000 × g for 30 min and the supernatants were collected.
(§4) Protein concentrations were determined using the BCA assay (Pierce, Rockford, IL, USA). 2X Laemmli buffer (Bio-Rad) was utilized to dilute the lysates. […] Protein bands were detected using chemiluminescence detection system onto X-ray film. […]
(§5) For stereotaxic injection of α-synuclein PFF, 2 months old mice were anesthetized with the mixture of xylazene and ketamine. […] The head skin was closed by suturing and wound healing and recovery were monitored following surgery. […]

[4] = tested on: α-synuclein PFF mouse model of sporadic PD; test: α-synuclein PFF mouse model: neuroinflammation (Iba-1, GFAP) in SNpc; format: in vivo, C57BL/6 mice
Experimental: as §1
The perfusion was performed with ice-cold PBS and fixed by 4% paraformaldehyde after deep anesthesia. Whole brains were collected, and fixed in the 4% paraformaldehyde, and incubated in cryoprotection solution (30% sucrose/PBS, pH 7.4). Brains were frozen in an optimal cutting temperature (OCT) solution and serial coronal sections (30 µm sections) were cut with a microtome. Free-floating sections were blocked with 5% goat or horse serum/PBS plus 0.2% Triton X-100 and incubated with anti-TH antibody (Novus Biologicals) or anti-pS129-α-synuclein followed by incubation with biotin-conjugated anti-rabbit antibody or anti-mouse antibody (Vector Labs). After washing three times, ABC reagents (Vector Labs) were added and sections were developed using SigmaFast 3, 3′-Diaminobenzidine (DAB) Peroxidase Substrate (Sigma-Aldrich). Sections were counterstained with Nissl (0.09% thionin). TH-positive and Nissl-positive dopaminergic neurons from the SNpc region were counted through optical fractionators, the unbiased method for cell counting. This method was carried out by using a computer-assisted image analysis system consisting of an Axiophot photomicroscope (Carl Zeiss Vision) equipped with a computer-controlled motorized stage (Ludl Electronics), a Hitachi HV C20 camera and Stereo Investigator software (MicroBright-Field). The total number of TH-stained neurons and Nissl counts was analyzed as previously described ([27],[43]). Fiber density in the striatum was analyzed by optical density (OD) measurement. […] The number of pS129-α-synuclein positive and Nissl positive in the SNpc region were measured with ImageJ software and field counting. […] The number and immunoreactivities of microglia and astrocyte in the SNpc region were measured with ImageJ software.

primary cortical neurons [5] = test: Oxygen consumption rate (Seahorse XF24) in α-synuclein PFF-treated primary cortical neurons; format: cell-based, mouse; conditions: 1 μM, 14 days
Experimental: OCR was determined using the Seahorse XF24 Extracellular Flux Analyzer and the XF Cell Mito Stress Test Kit according to the manufacturer’s instruction (Agilent Technologies, Santa Clara, CA) ([42]). Briefly, primary mouse cortical neurons were plated in a XF24 cell culture microplate coated with poly-D-lysine. Cells were washed once with XF Assay Media, pre-incubated in a non-CO2 incubator at 37°C for 30 min in XF Assay Media. For the assay, cells were treated sequentially with 1 μM Oligomycin, 2 μM carbonyl cyanide-p-trifluoromethoxyphenylhydrazone (FCCP), and 1 μM Rotenone plus 1 μM Antimycin A. Oligomycin inhibits ATP synthase (complex V) to measure ATP production and proton leak. FCCP uncouples oxygen consumption from ATP production enables to measure maximal respiration. Rotenone and antimycin A inhibit complexes I and III and shut down mitochondrial respiration. Basal respiration was calculated using the mean of the OCR measurements before oligomycin injection minus the mean of the OCR measurements after rotenone and antimycin A injection, and maximal respiration was defined as the difference between the mean of the OCR measurements after FCCP injection and the mean of the OCR measurements after rotenone and antimycin A injection.

[6] = tested on: α-synuclein PFF mouse model of sporadic PD; test: α-synuclein PFF mouse model: dopaminergic neurodegeneration and striatal TH fiber density; format: in vivo, C57BL/6 mice; conditions: for SNpc TH- and Nissl-positive dopaminergic neurons (stereologic counting): 180 days after PFF
Experimental: as §1
The perfusion was performed with ice-cold PBS and fixed by 4% paraformaldehyde after deep anesthesia. Whole brains were collected, and fixed in the 4% paraformaldehyde, and incubated in cryoprotection solution (30% sucrose/PBS, pH 7.4). Brains were frozen in an optimal cutting temperature (OCT) solution and serial coronal sections (30 µm sections) were cut with a microtome. […] TH-positive and Nissl-positive dopaminergic neurons from the SNpc region were counted through optical fractionators, the unbiased method for cell counting. […] The total number of TH-stained neurons and Nissl counts was analyzed as previously described ([27],[43]). Fiber density in the striatum was analyzed by optical density (OD) measurement. […] The number of pS129-α-synuclein positive and Nissl positive in the SNpc region were measured with ImageJ software and field counting. […] The number and immunoreactivities of microglia and astrocyte in the SNpc region were measured with ImageJ software.

primary cortical neurons [7] = test: α-synuclein PFF-induced neuronal toxicity (TUNEL, Alamar Blue); format: cell-based, C57BL/6 mice; conditions: α-synuclein PFF 14 days; 50, 250, 1000 nM
Experimental: as §2
Cell viability was tested via two methods; In Situ Cell Death Detection Kit (Roche) for TUNEL assay and Alamar Blue assay (Thermo Fisher). […] Cell death was assessed through the TUNEL assay, according to the manufacturer’s protocol. For Alamar Blue assay, after adding Alamar Blue solution for 4 h, cell viability was determined by fluorescence at excitation wavelength 570 nm and emission wavelength 585 nm.

c-Abl [8] = test: α-synuclein PFF-induced c-Abl activation in primary cortical neurons (Western blot); format: cell-based, C57BL/6 mice; conditions: 1 μM
Experimental: as §2
After washing two times with PBS, primary cortical neurons were harvested and then lysed with RIPA lysis buffer (Thermo Scientific) with phosphatase inhibitor cocktail (Sigma-Aldrich) and complete protease inhibitor mixture (Roche) for 30 min in ice. The lysate is then homogenized and centrifuged at 22 000 × g for 30 min.
as §4

[9] = tested on: α-synuclein PFF mouse model of sporadic PD; test: α-synuclein PFF mouse model: LB/LN-like pathology in vivo; design: species or system C57BL/6 mice; conditions: for Accumulation of pS129-α-synuclein in SNpc TH-positive neurons: oral once a day for 5 months, 180 days after PFF
Experimental: For Triton X-100 (TX, Sigma-Aldrich) soluble and insoluble fraction, cells were prepared with sequential lysis buffer. Samples were homogenized in the followed TX-soluble buffer (50 mM Tris (pH 8.0), 150 mM NaCl, 1% TX with phosphatase inhibitor cocktail and protease inhibitor cocktail) and then were centrifuged and collected the soluble supernatant. The insoluble pellet was resuspended in TX-insoluble buffer (50 mM Tris (pH 8.0), 150 mM NaCl, 1% TX, 2% SDS with phosphatase inhibitor cocktail and protease inhibitor cocktail) and then was sonicated and centrifuged at 22 000 × g for 30 min.
Protein concentrations were determined using the BCA assay (Pierce, Rockford, IL, USA). 2X Laemmli buffer (Bio-Rad) was utilized to dilute the lysates. […] Membrane was blocked with TTBS (150 mM NaCl, 10 mM Tris–HCl (pH 7.4), 0.05% Tween 20) containing 5% skim milk for 30–60 min and incubated at 4°C overnight with primary antibodies; mouse anti-α-synuclein (610787; BD Transduction Laboratories), rabbit anti-pY245 c-Abl (2861; Cell Signaling Technology), mouse anti-c-Abl (554148; BD Transduction Laboratories), rabbit monoclonal anti-pS129 α-synuclein (ab168381; Abcam), rabbit polyclonal anti-phospho-p38 MAPK (Thr180/Tyr182) (9211; Cell Signaling Technology), rabbit polyclonal anti-p38 MAPK (A11340; Abclonal Technology) followed by HRP-conjugated rabbit or mouse secondary antibodies (1: 5000, GE Healthcare) for 1 h at room temperature. Rabbit polyclonal anti-pY39-α-synuclein antibody was generated as described previously ([13]). Protein bands were detected using chemiluminescence detection system onto X-ray film. The membranes were reprobed with HRP-conjugated β-actin antibody (1: 20 000, Sigma-Aldrich).
as §3
Primary antibodies, anti-pS129-α-synuclein (ab168381; Abcam), anti-TH antibody (Novus Biologicals) and anti-MAP2 (MAB3418; Millipore) were incubated at 4°C overnight. The samples were washed with PBS three times, followed by 1 h of incubation with a mixture of FITC-conjugated (Jackson ImmunoReserach) and Cy3-conjugated (Jackson ImmunoReserach) secondary antibodies at room temperature. […]
as §5

[10] = low (3), mid (10) and high (30 mg/kg) doses oral, 6 months after PFF
[11] = mid (10 mg/kg) and high (30 mg/kg) doses oral

Structure (SMILES): Cc1cn(-c2cc(NC(=O)c3ccc(C)c(Nc4nccc(-c5cnccn5)n4)c3)cc(C(F)(F)F)c2)cn1 [Radotinib HCl]
- Grip strength (neuromuscular strength reduced by α-synuclein PFF) [1, 10]: restored
- Pole test latency induced by α-synuclein PFF [1, 10]: significantly restored
- Amphetamine-induced full body ipsilateral rotations ([1]; mid (10 mg/kg) and high (30 mg/kg) doses oral, amphetamine 5 mg/kg I.P.): reduced
- IC50 (BCR-Abl): 34 nM
- LB/LN-like pathology induced by α-synuclein PFF (pS129-α-synuclein immunostaining) (primary cortical neurons [2]): significantly decreased
- Increase in phosphorylation of c-Abl (Y245) and of p38 MAPK in α-synuclein PFF-injected mice (c-Abl [3]; Supplementary Fig. S1): reversed
- c-Abl activation, TX-insoluble α-synuclein aggregates, phosphorylation of Y39-α-synuclein and p38 MAPK, compared to Nilotinib-treated mice (c-Abl [3]; α-synuclein PFF-injected mice): substantially decreased
- Astrocyte activation (GFAP) in SNpc [4, 11]: significantly decreased
- Iba-1 immunoreactivity and microglial density in SNpc [4, 11]: significantly reduced
- Basal respiration rate (BRR) (primary cortical neurons [5]): markedly restored
- Maximal respiration rate (MRR) (primary cortical neurons [5]): markedly restored
- α-synuclein PFF-induced reduction in striatal TH-fiber density ([6]; low (3), mid (10) and high (30 mg/kg) doses oral): significantly rescued
- SNpc TH- and Nissl-positive dopaminergic neurons (stereologic counting) [6, 11]: dramatic preservation
- α-synuclein PFF neuronal toxicity, Alamar blue assay (primary cortical neurons [7]): significantly attenuated
- α-synuclein PFF neuronal toxicity, TUNEL staining (primary cortical neurons [7]): significantly attenuated
- c-Abl activation induced by α-synuclein PFF (pY245-c-Abl) (c-Abl [8]; α-synuclein PFF 1 μg/ml, primary cortical neurons): significantly decreased
- Level of pY39-α-synuclein (c-Abl [8]; α-synuclein PFF-treated primary cortical neurons): significantly decreased
- TX-insoluble α-synuclein aggregates species, pS129-α-synuclein and pY39-α-synuclein levels in ventral midbrain ([9]; 3, 10, 30 mg/kg oral, dose-dependent): significantly reduced
- Accumulation of pS129-α-synuclein in SNpc TH-positive neurons ([9]; mid (10 mg/kg) and high (30 mg/kg) doses): significantly decreased

Structure (SMILES): Cc1cn(-c2cc(NC(=O)c3ccc(C)c(Nc4nccc(-c5cccnc5)n4)c3)cc(C(F)(F)F)c2)cn1 [Nilotinib]
- Behavioral deficits in the α-synuclein PFF mouse model ([1]; high dose (30 mg/kg) oral): protected against the behavioral deficits
- Astrocyte activation (GFAP) in SNpc ([4]; high dose (30 mg/kg) oral): significantly decreased
- Iba-1 immunoreactivity and microglial density in SNpc ([4]; high dose (30 mg/kg) oral): significantly reduced
- SNpc TH- and Nissl-positive dopaminergic neurons (stereologic counting) ([6]; high dose (30 mg/kg) oral): dramatic preservation
- Reduction of TX-insoluble α-synuclein aggregate species, pS129- and pY39-α-synuclein compared to Radotinib HCl ([9]; high dose (30 mg/kg) oral): less effect
- Accumulation of pS129-α-synuclein in SNpc TH-positive neurons ([9]; high dose (30 mg/kg)): significantly decreased
